From patent EP1157000B1 (Warner-Lambert Company LLC, priority 1999, dated 2001)

How the values were obtained:
[1] = tested on: ex vivo rat retinas; test: CO2 fixation: H14CO3 incorporation into metabolites by ex vivo retinas; type: cell-based; details: for TCA cycle / Asp / Gln / Glu / Total / Lact: half retinas, 37°C, 25 mM H14CO3, 0.2 mM pyruvate, BCAA 0.2 mM each; for Lact: lactate peak includes pyruvate
Procedure: Sprague Dawley rats (200-400g) were used for all experiments. Rats were housed under a 12 hour light/dark cycle, and fed and watered ad libidum. After anaesthetizing the rats with-nembutal (IP), eyes were enucleated and retinas dissected in ice-cold buffer.
Freshly isolated half-retinas were preincubated at 37°C for 3 minutes in buffer A (pH 7.4) containing 118 mM NaCl, 4.7 mM KCl, 2.5 mM CaCl, 1.2 mM KH2PO4, 1.17 mM MgSO4, 20 mM HEPES, 5 mM glucose, 0.05 mM NH4Cl and 25 mM NaH^14CO3. Pyruvate (either 0.2 or 5mM) was also included in the buffer. 1 ml buffer as well as the gas phase within 20 ml vials were equilibrated with 95% O2, 5% CO2. Incubations were initiated by addition of 10 µCi/ml H^14CO3. The vessels were then immediately closed to the atmosphere. Most incubations continued for 20 minutes, although in some preliminary studies, times were varied from 10-60 minutes. Reactions were stopped by removing the half retinas from the buffer and placing them in 2% perchloric acid. The buffer was separately acidified with perchloric acid (final concentration 2%) and unreacted ^14CO2 was allowed to diffuse out of the acidified samples.
The total amount of product (non-volatile carbon 14 metabolites) was determined by measuring the radioactivity in aliquots of the medium and tissue samples. Metabolites in the extracts were separated by Dowex-1 acetate chromatography as previously described: Williamson, J.R., and Corkey, B. (1969) "Methods in Enzymology", Vol, 13, ed. Lowenstein, J.M. (Academic Press) pp 434-513, and quantified by scintillation counting. In most instances, individual metabolite carbon 14 data is reported as the sum of the radioactivity in the medium plus tissue extracts. Complete quantification of ^14C-metabolite amounts in both the retina and in the medium can be found below in Tables I and II.
The chromatographic procedure employed in this example separates glutamine, glutamate, aspartate, and lactic acid. The citric acid cycle intermediates remain on the Dowex columns and are estimated as the difference between the total counts in the sample and the counts that are eluted. Evidence of the validity of this procedure has been reported previously. Before subjecting samples to chromatography, ^14C-pyruvic acid in the samples was converted stoichiometrically to lactate by treating the samples with excess NADH and lactate dehydrogenase. Therefore the single lactate peak reported contains all carbon 14 in both lactate and pyruvate. To determine specific activity of glutamate and glutamine in the retinal samples, the mass amount of the glutamate was measured fluorometrically using a standard enzymatic procedure: Patel, M.S. (1989) in Neuromethods: Carbohydrate and Energy Metabolism, Vol II, eds. Boulton, A.A and Baker G.D. (The Humana Press, Inc.) pp 309-340. The mass amount of glutamine was measured after chromatographic separation from glutamate followed by a luminometric determination previously described. ATP and creatine phosphate were measured fluorometrically using an enzymatic assay.
Data are reported in text and figures by determining the dpm/mg in a particular metabolite and dividing by the specific activity of medium HCO3. Therefore all data are reported as nmoles of H^14CO3/mg protein for any given metabolite.

[2] = tested on: freshly dissected rat retinas; test: Synthesis of leucine in freshly dissected retinas; type: cell-based; details: data not shown
[3] = biological target: T1, BCATc (Homo sapiens, UniProt P54687); details: cited from earlier work
T1 sequence (P54687 1-386): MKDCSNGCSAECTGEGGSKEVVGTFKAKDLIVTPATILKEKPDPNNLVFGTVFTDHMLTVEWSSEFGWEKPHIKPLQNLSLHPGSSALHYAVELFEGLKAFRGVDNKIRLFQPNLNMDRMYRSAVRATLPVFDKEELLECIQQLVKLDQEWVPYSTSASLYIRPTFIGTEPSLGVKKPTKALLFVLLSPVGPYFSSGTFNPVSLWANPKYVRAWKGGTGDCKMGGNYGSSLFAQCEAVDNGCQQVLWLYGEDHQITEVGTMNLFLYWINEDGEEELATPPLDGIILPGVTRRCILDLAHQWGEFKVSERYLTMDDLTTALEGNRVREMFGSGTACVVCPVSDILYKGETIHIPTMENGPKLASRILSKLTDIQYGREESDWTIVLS

[4] = biological target: T2, BCATm (Homo sapiens, UniProt O15382); details: cited from earlier work
T2 sequence (O15382 28-392): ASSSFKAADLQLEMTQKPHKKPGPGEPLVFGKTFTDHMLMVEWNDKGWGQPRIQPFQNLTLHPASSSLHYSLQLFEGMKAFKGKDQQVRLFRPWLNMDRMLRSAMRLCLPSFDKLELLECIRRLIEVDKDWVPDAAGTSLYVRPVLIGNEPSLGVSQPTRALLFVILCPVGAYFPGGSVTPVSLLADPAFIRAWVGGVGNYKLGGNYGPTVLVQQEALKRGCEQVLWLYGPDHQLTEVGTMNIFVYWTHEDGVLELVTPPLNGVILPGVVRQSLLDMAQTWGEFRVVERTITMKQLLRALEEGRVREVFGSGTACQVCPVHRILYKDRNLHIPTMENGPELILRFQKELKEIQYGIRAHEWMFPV

[5] = 0, 0.2, 1, or 5 mM GBP, 20 minutes, Figure 5
[6] = compartment in (retina), 20 min, GBP 1 mM
[7] = compartment out (medium), 20 min, GBP 1 mM
[8] = sum of medium plus tissue, 20 min, GBP 1 mM

In the case of `NCC1(CC(=O)O)CCCCC1` [GBP, gabapentin], the “extent of inhibition of the synthesis of ^14C-glutamate plus ^14C-glutamine on increasing the concentration over 1 mM” value [1, 5] is reported as “did not significantly increase”, the “formation of citric acid cycle intermediates, lactate and pyruvate” value [1, 5] is reported as “no influence” and the “formation of ^14C-glutamate plus ^14C-glutamine” value ([1]; 1 mM GBP plus 200 µM each of leucine, isoleucine and valine) is reported as 89 % of control. The “formation of ^14C-glutamate plus ^14C-glutamine” value ([1]; 1 mM GBP plus 200 µM each of leucine, isoleucine and valine, p<0.01 versus GBP alone) was 2.84 ± 1.15 nmol/mg, the “formation of ^14C-glutamate plus ^14C-glutamine” value ([1]; 1 mM GBP, 20 min, 0.2 mM pyruvate, p<0.001) was 71 % of control and the “formation of ^14C-glutamate plus ^14C-glutamine” value ([1]; 1 mM GBP, 20 min, 0.2 mM pyruvate, control 3.18 ± 0.12) was 2.26 ± 0.05 nmol/mg. For the same molecule, the “incorporation of carbon 14 into lactate and citric acid cycle intermediates” value ([1]; 1 mM GBP, control 1.93 ± .06, increase not significant) was 2.12 ± 0.13 nmoles of H^14CO3/mg protein, the “H^14CO3 incorporation into lactate and citric acid cycle intermediates” value ([1]; GBP 1 mM) was “without slowing” and the “Inhibition of de novo glutamate synthesis after addition of BCAA” value ([1]; GBP 1 mM plus 0.6 mM BCAA) was “reversed”. For the same molecule, the inhibition at 1000 µM ([1]; Rattus norvegicus, GBP 1 mM, read-out: inhibited synthesis of ^14C-glutamate plus ^14C-glutamine from H^14CO3) was 31%, the TCA cycle ([1]; compartment in (retina), estimated as total counts minus eluted counts, 20 min, GBP 1 mM) was 1.514 ± 0.103 nmoles of H^14CO3/mg protein and the Asp [1, 6] was 0.549 ± 0.019 nmoles of H^14CO3/mg protein. The Gln [1, 6] was 0.389 ± 0.026 nmoles of H^14CO3/mg protein, the Glu [1, 6] was 1.324 ± 0.025 nmoles of H^14CO3/mg protein and the Total [1, 6] was 3.902 ± 0.122 nmoles of H^14CO3/mg protein. For the same molecule, the Lact [1, 6] was 0.089 ± 0.006 nmoles of H^14CO3/mg protein, the Asp [1, 7] was 0.035 ± 0.003 nmoles of H^14CO3/mg protein and the Gln [1, 7] was 0.545 ± 0.024 nmoles of H^14CO3/mg protein. For the same molecule, the Glu [1, 7] was 0.008 ± 0.002 nmoles of H^14CO3/mg protein, the TCA cycle [1, 7] was 0 nmoles of H^14CO3/mg protein and the Total [1, 7] was 1.066 ± 0.028 nmoles of H^14CO3/mg protein. The Lact [1, 7] was 0.516 ± 0.030 nmoles of H^14CO3/mg protein, the Asp [1, 8] was 0.584 ± 0.022 nmoles of H^14CO3/mg protein and the Gln [1, 8] was 0.934 ± 0.036 nmoles of H^14CO3/mg protein. For the same molecule, the Glu [1, 8] was 1.332 ± 0.025 nmoles of H^14CO3/mg protein, the TCA cycle [1, 8] was 1.514 ± 0.103 nmoles of H^14CO3/mg protein and the Total [1, 8] was 4.968 ± 0.028 nmoles of H^14CO3/mg protein. The Lact [1, 8] was 0.605 ± 0.028 nmoles of H^14CO3/mg protein, the synthesis of leucine [2] was “inhibits” and the “inhibition of BCATc” value [3] was “inhibits”. The “inhibition of BCATm” value [4] was “not”.
